Structures are written as SMILES.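 Cultured in 96-well plates, cells were exposed to test compound for 48 hours across five concentrations. GI50 marks 50% less growth. TGI: total growth inhibition.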

Drawing on PubChem BioAssay (NCI), this text covers GI50 and TGI for 8 compounds.

Test systems include HS 578T breast; LOX IMVI melanoma; NCI-H522 lung; OVCAR-4 ovarian; OVCAR-5 ovarian; PC-3 prostate; T-47D breast; U251 CNS; UACC-257 melanoma; UACC-62 melanoma.
What all share (experiment): NCI anticancer screen, dose series, 48 h

As for `Nc1ncnc2c1c(-c1ccc(Oc3ccccc3)cc1)nn2C[C@@H]1SSC[C@@H]1O`, the GI50 was 2.02 µM in the assay with HS 578T breast; 0.169 µM in the assay with LOX IMVI melanoma; 2.15 µM in the assay with NCI-H522 lung; 1.33 µM in the assay with OVCAR-4 ovarian; 2.16 µM in the assay with OVCAR-5 ovarian; 1.72 µM with PC-3 prostate. For the same compound, the GI50 was 0.305 µM in the assay with T-47D breast, 0.853 µM with U251 CNS, 0.374 µM in the assay on UACC-257 melanoma and 0.193 µM in the assay with UACC-62 melanoma. In addition, the TGI turned out to be 11.6 µM in the assay with HS 578T breast; 1.11 µM in the assay on LOX IMVI melanoma; 6.98 µM with NCI-H522 lung; 14 µM in the assay on OVCAR-4 ovarian; 26.2 µM with OVCAR-5 ovarian; 10.1 µM in the assay on PC-3 prostate. Moreover, the TGI amounted to 2.27 µM in the assay with T-47D breast, 8.71 µM in the assay with U251 CNS, 11.9 µM in the assay with UACC-257 melanoma and 0.411 µM in the assay on UACC-62 melanoma.
With `O=C(O)C1C2C=CC(O2)C1C(=O)Nc1ncccn1` (stereo not given), the TGI with HS 578T breast, in the assay on LOX IMVI melanoma, in the assay on NCI-H522 lung, in the assay with OVCAR-4 ovarian, with OVCAR-5 ovarian and in the assay with PC-3 prostate was over 100 µM each time. For the same compound, the TGI in the assay with T-47D breast, with U251 CNS, in the assay on UACC-257 melanoma and in the assay on UACC-62 melanoma was over 100 µM in each case.
Consider `COc1cc2cc(Oc3ccc(NC(=O)c4cccc5c4OCCO5)cc3)c(C)nc2cc1OC`, for which the GI50 was 5.64 µM in the assay with HS 578T breast; 9.28 µM in the assay with LOX IMVI melanoma; 4.28 µM with NCI-H522 lung; 3.32 µM in the assay on OVCAR-4 ovarian; 10.8 µM with OVCAR-5 ovarian; 2.49 µM in the assay with PC-3 prostate. For the same compound, the GI50 in the assay on T-47D breast was 2.82 µM; in the assay with U251 CNS, 5.03 µM; in the assay on UACC-257 melanoma, 4.79 µM; in the assay with UACC-62 melanoma, 6.24 µM. The TGI in the assay on HS 578T breast is over 100 µM; in the assay on LOX IMVI melanoma it was over 100 µM; with NCI-H522 lung it was 45.1 µM; with OVCAR-4 ovarian, 35 µM; with OVCAR-5 ovarian, over 100 µM; with PC-3 prostate, 16.2 µM. Moreover, the TGI in the assay with T-47D breast is 15.4 µM; with U251 CNS it was over 100 µM; in the assay on UACC-257 melanoma, 63.5 µM; with UACC-62 melanoma, over 100 µM.
`Fc1cc(-c2nnc3n2N=C(c2ccc(Cl)cc2Cl)CS3)c(Cl)cc1Cl`: the GI50 in the assay on HS 578T breast is 33.6 µM; in the assay on LOX IMVI melanoma, 34.3 µM; in the assay with NCI-H522 lung, 50.8 µM; with OVCAR-4 ovarian, over 100 µM; in the assay with OVCAR-5 ovarian, over 100 µM; in the assay with PC-3 prostate, 39.2 µM. Further, the GI50 in the assay on T-47D breast is 11.7 µM; in the assay with U251 CNS, 38.2 µM; in the assay on UACC-257 melanoma, 86 µM; in the assay with UACC-62 melanoma, 24.9 µM. Also, the TGI in the assay on HS 578T breast, in the assay on LOX IMVI melanoma, in the assay on NCI-H522 lung, in the assay on OVCAR-4 ovarian, in the assay with OVCAR-5 ovarian and with PC-3 prostate was over 100 µM throughout. Further, the TGI in the assay with T-47D breast was 48.5 µM; in the assay on U251 CNS, over 100 µM; in the assay on UACC-257 melanoma, over 100 µM; in the assay with UACC-62 melanoma, 99.6 µM.
For the compound `CC(C)(CO)N=Cc1ccccc1[O-].CC(C)(CO)N=Cc1ccccc1[O-].[Co+2]`, the GI50 in the assay on HS 578T breast is over 100 µM; in the assay with LOX IMVI melanoma, 40.5 µM; in the assay with NCI-H522 lung, 30.4 µM; in the assay with OVCAR-4 ovarian it was 71.9 µM; in the assay with OVCAR-5 ovarian, over 79.7 µM; in the assay on PC-3 prostate, 49.3 µM. Besides, the GI50 in the assay with T-47D breast was 10.1 µM; in the assay with U251 CNS it was 74.9 µM; in the assay with UACC-257 melanoma, 30.1 µM; in the assay with UACC-62 melanoma it was 24.9 µM. Moreover, the TGI in the assay with HS 578T breast is over 100 µM; in the assay on LOX IMVI melanoma it was over 63.1 µM; in the assay with NCI-H522 lung it was 90.5 µM; in the assay on OVCAR-4 ovarian it was over 100 µM; in the assay with OVCAR-5 ovarian it was over 100 µM; in the assay with PC-3 prostate, over 100 µM. Also, the TGI in the assay on T-47D breast is over 100 µM; with U251 CNS, over 100 µM; in the assay with UACC-257 melanoma, over 100 µM; with UACC-62 melanoma it was over 85.3 µM.
Regarding `O=C(Cc1ccc(/C=C/C(=O)c2ncc[nH]2)cc1)Nc1ccc(C(F)(F)F)cc1`, the GI50 in the assay with HS 578T breast was 5.88 µM; in the assay on LOX IMVI melanoma, 0.469 µM; with NCI-H522 lung it was 4.87 µM; with OVCAR-4 ovarian, 5.12 µM; with OVCAR-5 ovarian, 4.89 µM; in the assay with PC-3 prostate it was 2.81 µM. The GI50 in the assay on T-47D breast is 3.97 µM; in the assay on U251 CNS it was 1.22 µM; with UACC-257 melanoma it was 7.2 µM; with UACC-62 melanoma, 4.47 µM. The TGI is over 33.3 µM in the assay with HS 578T breast; 1.02 µM in the assay on LOX IMVI melanoma; 12.4 µM in the assay with NCI-H522 lung; 22.1 µM in the assay on OVCAR-4 ovarian; 10.2 µM in the assay on OVCAR-5 ovarian; 12.4 µM in the assay with PC-3 prostate. Also, the TGI in the assay on T-47D breast was determined as 12.3 µM; in the assay on U251 CNS, 4.11 µM; with UACC-257 melanoma, 16.1 µM; in the assay on UACC-62 melanoma, 9.44 µM.
On to `COc1ccc(/C=C(/C(=O)n2cnnn2)c2cc(OC)c(OC)c(OC)c2)cc1`, for which the GI50 in the assay with HS 578T breast is 4.07 µM; in the assay with LOX IMVI melanoma, 3.82 µM; in the assay with NCI-H522 lung, 2.26 µM; in the assay with OVCAR-4 ovarian it was 40.5 µM; in the assay on OVCAR-5 ovarian it was 5.78 µM; with PC-3 prostate, 4.03 µM. The GI50 in the assay with T-47D breast is over 100 µM; in the assay with U251 CNS it was 4.22 µM; in the assay on UACC-257 melanoma, over 100 µM; in the assay on UACC-62 melanoma, 3.1 µM. Further, the TGI is over 100 µM with HS 578T breast; over 100 µM in the assay on LOX IMVI melanoma; 6.67 µM in the assay on NCI-H522 lung; over 100 µM in the assay with OVCAR-4 ovarian; over 100 µM in the assay on OVCAR-5 ovarian; over 100 µM in the assay with PC-3 prostate. The TGI in the assay with T-47D breast, with U251 CNS, in the assay with UACC-257 melanoma and with UACC-62 melanoma was over 100 µM throughout.
For the compound `CN(C)CCCC1(c2ccc(F)cc2)OCc2cc(-c3cncc4ccccc34)ccc21` (stereo not given), the GI50 in the assay on HS 578T breast is 2.78 µM; in the assay with LOX IMVI melanoma it was 1.72 µM; with NCI-H522 lung it was 1.88 µM; in the assay with OVCAR-4 ovarian it was 3.27 µM; with OVCAR-5 ovarian, 5.23 µM; in the assay with PC-3 prostate it was 3.36 µM. In addition, the GI50 with T-47D breast is 2.43 µM; in the assay with U251 CNS, 2.22 µM; in the assay with UACC-257 melanoma it was 2.02 µM; with UACC-62 melanoma it was 2.24 µM. The TGI worked out at 11.6 µM with HS 578T breast; 3.27 µM with LOX IMVI melanoma; 4.08 µM with NCI-H522 lung; 13.7 µM in the assay with OVCAR-4 ovarian; 18.3 µM in the assay on OVCAR-5 ovarian; 15 µM in the assay with PC-3 prostate. Besides, the TGI was found to be 7.28 µM with T-47D breast, 5.7 µM in the assay with U251 CNS, 4 µM in the assay on UACC-257 melanoma and 5.17 µM in the assay with UACC-62 melanoma.
